Laboratory results taken from patent publication US11026901B2, “Treatment or prevention of cardiovascular events via the administration of a colchicine derivative” (Murray and Poole Enterprises, LTD., priority 2012, dated 2021).

Test system: patients with angiographically proven, clinically stable coronary disease
Test: LoDoCo trial: cardiovascular events with colchicine 0.5 mg/day added to standard secondary prevention therapy
Format: in vivo, human
Procedure: We employed a PROBE [Prospective Randomized, Open, Blinded End-point] design
All patients signed informed consent before randomization.
All other treatments were continued as usual.
The secondary outcomes were analysed similarly.

[1] = intention-to-treat, in each group
[2] = intention-to-treat, treatment [n = 282] vs control [n = 250]
[3] = on-treatment analysis, treatment [n = 243] vs control [n = 250]

In the case of `COc1cc2c(c(OC)c1OC)-c1ccc(OC)c(=O)cc1[C@@H](NC(C)=O)CC2` [colchicine], the “risk of a cardiovascular event, including an ACS, out of hospital cardiac arrest and non-cardio-embolic ischemic stroke” value (colchicine 0.5 mg/day added to standard therapy, stable coronary disease) is reported as “significantly reduces”, the patients who died (colchicine group (ten in the control group)) is reported as 4 patients and the “Primary Outcome (composite ACS, out of hospital cardiac arrest or non-cardio-embolic ischemic stroke), patients with event” value (intention-to-treat, colchicine 0.5 mg/day [n = 282], median follow up 36 months) is reported as 15 n. For the same compound, the “number needed to treat, primary outcome” value (intention-to-treat, colchicine 0.5 mg/day vs control) was 11, the “stent related ACS with evidence of acute stent thrombosis, patients” value [1] was 2 and the “stent related ACS with evidence of significant in-stent stenosis, patients” value [1] was 2. The “Acute Coronary Syndrome, HR; 95% CI” value [2] was 0.33, the “Non-Stent Related ACS, HR; 95% CI” value [2] was 0.26 and the “Non-Stent Related AMI, HR; 95% CI” value [2] was 0.25. For the same compound, the “Non-Stent Related UA, HR; 95% CI” value [2] was 0.27, the “Primary Outcome, HR 95% CI” value (intention-to-treat, treatment [n = 282] vs control [n = 250], cox proportional hazards) was 0.33 and the “Primary Outcome, patients with event” value (on-treatment analysis (tolerant and compliant beyond first month), colchicine 0.5 mg/day [n = 243]) was 11 n. The “Acute Coronary Syndrome, HR; 95% CI” value [3] was 0.28 (0.13, 0.58), the “Non-Cardio-Embolic Stroke, HR; 95% CI” value [3] was 0.27 (0.03, 2.42) and the “Non-Stent Related ACS, HR; 95% CI” value [3] was 0.21 (0.09, 0.50). For the same compound, the “Non-Stent Related AMI, HR; 95% CI” value [3] was 0.30 (0.10, 0.91), the “Non-Stent Related UA, HR; 95% CI” value [3] was 0.13 (0.03, 0.57) and the “OOH Cardiac Arrest, HR; 95% CI” value [3] was 0.55 (0.05, 6.03).
